The results in this text go back to ChEMBL document CHEMBL2057163, “Pyridofuran substituted pyrimidine derivatives as HCV replication (replicase) inhibitors” (Bioorg Med Chem Lett, 2012).

The structures appear in SMILES notation. pEC50: −log10 of the molar value.

One series concerns Hepatitis C virus. Kind of series: Antiviral activity against Hepatitis C virus 1b con1 infected in human hepatoma cells assessed as decrease in replicon RNA level after 3 days by RT-PCR analysis. The series is classed as functional, organism-based, Hepacivirus hominis. As to conditions: Con1, 72 h. (In general: In antiviral work, replicon cells carry a viral genome segment that copies itself.)

A short description of series [1]: Cytotoxicity against human hepatoma cells after 3 days by MTS assay. The series is classed as cell-based.
Series [2] in a line: Cytotoxicity against human hepatoma cells assessed as decrease in GAPDH RNA level after 3 days by RT-PCR analysis. The series is classed as cell-based.
Series [3] is described as follows: Selectivity ratio of CC50 for human hepatoma cells by MTS assay to EC50 for Hepatitis C virus 1b con1. The series is classed as ADME. As to conditions: read-out: Ratio CC50/EC50. A general note: Tetrazolium assays rely on reduction of a dye to a coloured formazan, in cell work by metabolically active cells.
Series [4] can be described thus: AUC (0 to 6 hrs) in rat at 10 mg/kg, po. The format is ADME, organism-based. On the set-up: time < 6 hr, dose 10 mg/kg, route oral. The conditions noted are these: plasma.
A further series concerns Liver. Kind of series: Drug uptake in rat liver assessed per gram of tissue at 10 mg/kg, po measured at 6 hrs. The format is ADME, organism-based. Details: dose 10 mg/kg, route oral. The conditions noted are these: in vivo.
Series [5] can be described thus: Cytotoxicity against human hepatoma cells assessed as inhibition of [14C]thymidine incorporation after 3 days by scintillation proximity assay. The format is cell-based. (In general: Uptake of a labelled nucleoside into DNA is a usual measure of proliferation.)
A short description of series [6]: Oral bioavailability in rat at 10 mg/kg. The conditions noted are these: in vivo. The series is classed as ADME, organism-based.
Series [7] in a line: Half life in rat at 10 mg/kg, po. As to conditions: in vivo. The format is ADME, organism-based. Details: dose 10 mg/kg, route oral.
Series [8] is described as follows: Clearance in rat at 10 mg/kg, po. Details: dose 10 mg/kg, route oral. As to conditions: in vivo. The format is ADME, organism-based.
Series [9] can be described thus: AUC in monkey at 3 mg/kg, po. The format is ADME, organism-based, Macaca mulatta. Details: dose 3 mg/kg, route oral. The conditions noted are these: rhesus monkey, plasma.
Series [10] is described as follows: Oral bioavailability in monkey at 3 mg/kg. The series is classed as ADME, organism-based, Macaca mulatta. As to conditions: rhesus monkey, in vivo.
The nature of series [11]: Half life in monkey at 3 mg/kg, po. The conditions noted are these: rhesus monkey, in vivo. The format is ADME, organism-based, Macaca mulatta. On the set-up: dose 3 mg/kg, route oral.
Series [12] is described as follows: Clearance in monkey at 3 mg/kg, po. The format is ADME, organism-based, Macaca mulatta. Details: dose 3 mg/kg, route oral. As to conditions: rhesus monkey, in vivo.
A short description of series [13]: AUC in dog at 3 mg/kg, po. The format is ADME, organism-based, Canis lupus familiaris. On the set-up: dose 3 mg/kg, route oral. As to conditions: plasma.
Series [14] is described as follows: Oral bioavailability in dog at 3 mg/kg. The series is classed as ADME, organism-based, Canis lupus familiaris. The conditions noted are these: in vivo.
Series [15] can be described thus: Half life in dog at 3 mg/kg, po. The series is classed as ADME, organism-based, Canis lupus familiaris. On the set-up: dose 3 mg/kg, route oral. As to conditions: in vivo.
A short description of series [16]: Clearance in dog at 3 mg/kg, po. As to conditions: in vivo. On the set-up: dose 3 mg/kg, route oral. The series is classed as ADME, organism-based, Canis lupus familiaris.

As usually defined, the pEC50 is the negative decadic logarithm of the EC50, by convention in mol/L. The term CC50 denotes the concentration at which the toxic effect on the cells reaches its halfway point. On to `CNc1nc(Cl)c(-c2cc3cc(OC)nc(C)c3o2)c(N[C@@H]2C[C@H](CO)[C@@H](O)[C@H]2O)n1`, for which, in the series on Hepatitis C virus, the pEC50 was 7.70. For the same compound, the figures for the 50% cytotoxic concentration (CC50) at 72 h in series [1] and in series [2] were 25 µM and more than 25 µM, respectively. Further, the selectivity ratio in [3] was more than 1000.
As usually defined, the AUC(0-t) is exposure summed from dosing to a finite time, without extrapolation to infinity. The term bioavailability denotes dose-corrected exposure relative to a reference, in per cent. The term half-life denotes how long it takes for the measured level to halve. A word on the CL/F: it is the apparent clearance, not corrected for the fraction that reaches the circulation. As usually defined, the AUC is the area under the concentration-time curve, a measure of exposure. In the case of `CCOc1cc2cc(-c3c(C)nc(NCC4CC4)nc3N[C@@H]3C[C@H](CO)[C@@H](O)[C@H]3O)oc2c(C)n1.Cl`, the AUC(0-t) at 6 h in series [4] was 45.5 µM·h. In the series on Liver, this compound gave a liver concentration of 10200 ng/g. Moreover, the CC50 at 72 h in series [5] was found to be 5 µM. Besides, the bioavailability was determined as 97% in [6], 100% in series [10] and 15% in [14]. For the same compound, the values for the half-life in series [7], in series [11] and in series [15] were 3.3 h, 2.8 h and 2.1 h, respectively. Moreover, the apparent clearance CL/F in series [8] amounted to 8 mL/min/kg; in series [12], 16 mL/min/kg; in series [16], 9.5 mL/min/kg. The exposure (AUC) in [9] was 10.2 µM·h; in series [13], 1.6 µM·h.
In [4], `CCOc1cc2cc(-c3c(C)nc(NCC(F)(F)F)nc3N[C@@H]3C[C@H](CO)[C@@H](O)[C@H]3O)oc2c(C)n1.Cl` returned an exposure AUC(0-t) at 6 h of 8.9 µM·h. The compound further showed a liver concentration in the series with Liver of 3020 ng/g.
On the same counts, the results for `CCOCCNc1nc(C)c(-c2cc3cc(CC)ncc3o2)c(N[C@@H]2C[C@H](CO)[C@@H](O)[C@H]2O)n1.Cl` are 1.2 µM·h and 492 ng/g.
In series [4], `CCc1cc2cc(-c3c(C)nc(NCC(C)(C)C)nc3N[C@@H]3C[C@H](CO)[C@@H](O)[C@H]3O)oc2cn1.Cl` returned an area under the curve AUC(0-t) at 6 h of 4 µM·h. This compound had a liver concentration with Liver of 315 ng/g.
In series [4], `CCc1cc2cc(-c3c(C)nc(NCc4cc(OC)cc(OC)c4)nc3N[C@@H]3C[C@H](CO)[C@@H](O)[C@H]3O)oc2cn1.Cl` registered an exposure AUC(0-t) at 6 h of 0.1 µM·h. Further, the liver concentration in the series on Liver worked out at 20 ng/g.
Regarding `CCc1cc2cc(-c3c(C)nc(NCC(F)(F)F)nc3N[C@@H]3C[C@H](CO)[C@@H](O)[C@H]3O)oc2cn1.Cl`, in series [4], the AUC(0-t) at 6 h worked out at 5.3 µM·h. In the series with Liver, this compound showed a liver concentration of 1730 ng/g. In addition, the CC50 at 72 h in [5] came out at 4 µM. Moreover, the bioavailability in series [6] came out at 39%; in [10] it was 69%; in series [14], 83%. Further, the half-life in series [7] was 4.2 h; in series [11], 7 h; in series [15], 2.1 h. Moreover, the CL/F in [8] was determined as 27 mL/min/kg; in series [12], 15 mL/min/kg; in [16], 13 mL/min/kg. The values for the area under the curve (AUC) in [9] and in [13] were 5.2 µM·h and 6.4 µM·h, respectively.
In series [4], `CCCCCNc1nc(C)c(-c2cc3cc(CC)ncc3o2)c(N[C@@H]2C[C@H](CO)[C@@H](O)[C@H]2O)n1.Cl` showed an AUC(0-t) at 6 h of 0.48 µM·h. In the series on Liver, this compound gave a liver concentration of 31 ng/g.
`CCc1cc2cc(-c3c(C)nc(NC)nc3N[C@@H]3C[C@H](CO)[C@@H](O)[C@H]3O)oc2cn1.Cl` had an AUC(0-t) at 6 h in [4] of 0.9 µM·h. The liver concentration in the series with Liver is 936 ng/g.
In the case of `CNc1nc(Cl)c(-c2cc3cc(OC)nc(C)c3o2)c(N[C@@H]2C[C@H](CO)[C@@H](O)[C@H]2O)n1.Cl`, the area under the curve AUC(0-t) at 6 h in series [4] stood at 6.5 µM·h. Besides, in the series on Liver, the liver concentration was 274 ng/g.
